Measurements: patent US12240921B2, “Peptides” (priority 2022, dated 2025)
Starred links: 1 amine or outer side, 2 acyl side, 3 side chain; linkers in the order of their positions; H or OH if unused. Groups on a side chain read outwards from the residue. No end group written: not given here. *: point of attachment. C18 diacid = O=C(O)CCCCCCCCCCCCCCCCC(=O)*; γGlu = O=C(O)[C@H](CCC(=O)[*:2])N[*:1]; AEEA = NCCOCCOCC(=O)O

Experiments:
Wistar Kyoto rats = assay: Wistar Kyoto (WKY) rat model of depression: EEG/EMG sleep-wake recording; type: in vivo; conditions: single injection, 0-3 h post dosing
Experimental: Ketamine (10 mg/kg), a N-methyl-D-aspartate-receptor antagonist, was used as positive control. All rats received all treatments 2 h after light onset in a pseudo randomized crossover fashion with a minimum period of 3 days between treatments. The rats were placed individually in recording boxes, and sleep-wake behaviour was recorded for 24 h. EEG/EMG signals were amplified, analogue filtered (0.5-100 Hz), digitized (500 Hz), and then digitally filtered (EEG: 0.5-100 Hz and EMG: 70-100 Hz). EEG/EMG recordings were semi-automatically scored as wake, non-REM (NREM) sleep, or REM sleep in 10 s epochs using SleepSign. Sleep stages were defined as below: […]

BDNF = assay: In vivo efficacy in wild-type mice, single SC dose: BDNF levels (western blotting); parameters: species or system mouse; conditions: single SC dose: LLP11 21 mg/kg, LLP12 26 mg/kg, CLP11 21 mg/kg; 4 and 8 hours
Experimental: 4 and 8 hour timepoints were chosen.
4-hour timepoint were chosen.

| Molecule | REM & NREM sleep (Wistar Kyoto rats) | time spent awake (wakefulness) (Wistar Kyoto rats) | BDNF levels in vivo (BDNF) |
| --- | --- | --- | --- |
| CNC1(c2ccccc2Cl)CCCCC1=O (stereo not drawn) [ketamine] | at the expense of REM & NREM sleep | increased time spent awake | – |
| LLP12: Linear lipidated peptide K*EQEMTEPVEHEEDV-NH2, * = C18DA-γGlu-OEG-OEG- (K([AEEA-AEEA-γGlu-C18 diacid])EQEMTEPVEHEEDV-NH2; N-terminus assumed; SMILES CSCC[C@H](NC(=O)[C@H](CCC(=O)O)NC(=O)[C@H](CCC(N)=O)NC(=O)[C@H](CCC(=O)O)NC(=O)[C@@H](N)CCCCNC(=O)COCCOCCNC(=O)COCCOCCNC(=O)CC[C@H](NC(=O)CCCCCCCCCCCCCCCCC(=O)O)C(=O)O)C(=O)N[C@H](C(=O)N[C@@H](CCC(=O)O)C(=O)N1CCC[C@H]1C(=O)N[C@H](C(=O)N[C@@H](CCC(=O)O)C(=O)N[C@@H](Cc1c[nH]cn1)C(=O)N[C@@H](CCC(=O)O)C(=O)N[C@@H](CCC(=O)O)C(=O)N[C@@H](CC(=O)O)C(=O)N[C@H](C(N)=O)C(C)C)C(C)C)[C@@H](C)O) | – | – | increase BDNF in vivo |
